What was measured:
[1] = test system: barnyardgrass (Echinochloa crus-galli L.); assay: Test Example 1: foliar treatment, growth inhibition rate, barnyardgrass; type: in vivo; details: visually observed 17th to 23rd day after application
Excerpt: (§1) Upland field soil was put into a 1/170,000 hectare pot, and seeds of various plants were sown. When the respective plants reached predetermined leaf stage ((1) barnyardgrass (Echinochloa crus-galli L.); 0.8 to 2.5 leaf stage, (2) crabgrass (Digitaria sanguinalis L.): 0.5 to 3.0 leaf stage, (3) greenfoxtail (Setaria viridis L.): 1.0 to 3.0 leaf stage, (4) redroot pigweed (Amaranthus retroflexus L.): cotyledon stage to 2.0 leaf stage, (5) prickly sida (Sida spinosa L.): cotyledon stage to 1.1 leaf stage, (6) velvetleaf (Abutilon theophrasti MEDIC.): cotyledon stage to 1.5 leaf stage, (7) rice (Oryza sativa L.): 1.0 to 2.5 leaf stage, (8) wheat (Triticum spp.): 1.7 to 3.4 leaf stage, (9) corn (Zea mays L.): 2.0 to 3.5 leaf stage, and (10) soybean (Glycine max Merr.): primary leaf stage to 0.3 leaf stage), wettable powders or emulsifiable concentrates of the compounds of the present invention prepared in accordance with a conventional preparation method, were weighed so that the active ingredients became the prescribed amounts, and diluted with water in an amount corresponding to 500 liter per 1 hectare. 0.1 vol % of an agricultural spreader was further added to the respective diluted liquids, followed by foliar treatment with a small sprayer.
(§2) On the 17th to 23rd day after application, the state of growth of the respective plants was visually observed, and the herbicidal effect was evaluated in accordance with a growth inhibition rate (%) of 0 (equivalent to the non-treated area) to 100% (complete kill).

[2] = test system: crabgrass (Digitaria sanguinalis L.); assay: Test Example 1: foliar treatment, growth inhibition rate, crabgrass; type: in vivo; details: visually observed 17th to 23rd day after application
Excerpt: as §1, §2

[3] = test system: greenfoxtail (Setaria viridis L.); assay: Test Example 1: foliar treatment, growth inhibition rate, greenfoxtail; type: in vivo; details: visually observed 17th to 23rd day after application
Excerpt: as §1, §2

[4] = test system: redroot pigweed (Amaranthus retroflexus L.); assay: Test Example 1: foliar treatment, growth inhibition rate, redroot pigweed; type: in vivo; details: visually observed 17th to 23rd day after application
Excerpt: as §1, §2

[5] = test system: prickly sida (Sida spinosa L.); assay: Test Example 1: foliar treatment, growth inhibition rate, prickly sida; type: in vivo; details: visually observed 17th to 23rd day after application
Excerpt: as §1, §2

[6] = test system: velvetleaf (Abutilon theophrasti MEDIC.); assay: Test Example 1: foliar treatment, growth inhibition rate, velvetleaf; type: in vivo; details: visually observed 17th to 23rd day after application
Excerpt: as §1, §2

rice (Oryza sativa L.) = assay: Test Example 1: foliar treatment, growth inhibition rate, rice; type: in vivo; details: visually observed 17th to 23rd day after application
Excerpt: as §1, §2

wheat (Triticum spp.) = assay: Test Example 1: foliar treatment, growth inhibition rate, wheat; type: in vivo; details: visually observed 17th to 23rd day after application
Excerpt: as §1, §2

corn (Zea mays L.) = assay: Test Example 1: foliar treatment, growth inhibition rate, corn; type: in vivo; details: visually observed 17th to 23rd day after application
Excerpt: as §1, §2

[7] = test system: soybean (Glycine max Merr.); assay: Test Example 1: foliar treatment, growth inhibition rate, soybean; type: in vivo; details: visually observed 17th to 23rd day after application
Excerpt: as §1, §2

crabgrass = assay: Test Example 2: soil application on the day after sowing, growth inhibition rate, crabgrass; type: in vivo, Digitaria sanguinalis L.; details: 250 g/ha active ingredient, observed on 19th to 24th day
Excerpt: (§3) Upland field soil was put into a 1/170,000 hectare pot, and seeds of various plants (barnyardgrass, crabgrass, greenfoxtail, redroot pigweed, prickly sida, velvetleaf, rice, wheat, corn and soybean) were sown. On the day after sowing, wettable powders or emulsifiable concentrates of the compounds of the present invention prepared in accordance with a conventional preparation method, were weighed so that the active ingredients became the prescribed amounts, and diluted with water in an amount corresponding to 500 liter per 1 hectare, followed by soil application with a small sprayer. On the 19th to 24th day after the application, the state of growth of the respective plants was visually observed, and the herbicidal effect was evaluated in accordance with a growth inhibition rate (%) of from 0 (equivalent to the non-treated area) to 100% (complete kill).

redroot pigweed = assay: Test Example 2: soil application on the day after sowing, growth inhibition rate, redroot pigweed; type: in vivo, Amaranthus retroflexus L.; details: 250 g/ha active ingredient, observed on 19th to 24th day
Excerpt: as §3

velvetleaf = assay: Test Example 2: soil application on the day after sowing, growth inhibition rate, velvetleaf; type: in vivo, Abutilon theophrasti MEDIC.; details: 250 g/ha active ingredient, observed on 19th to 24th day
Excerpt: as §3

corn = assay: Test Example 2: soil application on the day after sowing, growth inhibition rate, corn; type: in vivo, Zea mays L.; details: 250 g/ha active ingredient, observed on 19th to 24th day
Excerpt: as §3

Row | Structure (SMILES) | Growth inhibition rate (%) Barnyardgrass ([1]; 31 g/ha active ingredient) [%] | Growth inhibition rate (%) Crabgrass ([2]; 31 g/ha active ingredient) [%] | Growth inhibition rate (%) Greenfoxtail ([3]; 31 g/ha active ingredient) [%] | Growth inhibition rate (%) redroot pigweed ([4]; 31 g/ha active ingredient) [%] | Growth inhibition rate (%) Prickly sida ([5]; 31 g/ha active ingredient) [%] | Growth inhibition rate (%) Velvetleaf ([6]; 31 g/ha active ingredient) [%] | Growth inhibition rate (%) Rice (rice (Oryza sativa L.); 31 g/ha active ingredient) [%] | Growth inhibition rate (%) Wheat (wheat (Triticum spp.); 31 g/ha active ingredient) [%] | Growth inhibition rate (%) Corn (corn (Zea mays L.); 31 g/ha active ingredient) [%] | Growth inhibition rate (%) Soybean ([7]; 31 g/ha active ingredient) [%] | Growth inhibition rate (%) Barnyardgrass ([1]; 63 g/ha active ingredient) [%] | Growth inhibition rate (%) Crabgrass ([2]; 63 g/ha active ingredient) [%] | Growth inhibition rate (%) Greenfoxtail ([3]; 63 g/ha active ingredient) [%] | Growth inhibition rate (%) redroot pigweed ([4]; 63 g/ha active ingredient) [%] | Growth inhibition rate (%) Prickly sida ([5]; 63 g/ha active ingredient) [%] | Growth inhibition rate (%) Velvetleaf ([6]; 63 g/ha active ingredient) [%] | Growth inhibition rate (%) Rice (rice (Oryza sativa L.); 63 g/ha active ingredient) [%] | Growth inhibition rate (%) Wheat (wheat (Triticum spp.); 63 g/ha active ingredient) [%] | Growth inhibition rate (%) Corn (corn (Zea mays L.); 63 g/ha active ingredient) [%] | Growth inhibition rate (%) Soybean ([7]; 63 g/ha active ingredient) [%] | other results
1 | CCSC(=O)Oc1c(C(=O)c2ccc(S(C)(=O)=O)c(COC)c2Cl)cnn1C [compound 42] | 100 | 98 | 95 | 100 | 90 | 95 | 90 | 0 | 0 | 95 | – | – | – | – | – | – | – | – | – | – | Growth inhibition rate (%) Crabgrass (crabgrass): 100%; Growth inhibition rate (%) redroot pigweed (redroot pigweed): 100%; Growth inhibition rate (%) Velvetleaf (velvetleaf): 70%; Growth inhibition rate (%) Corn (corn): 0%
2 | CCSC(=O)Oc1c(C(=O)c2ccc(S(C)(=O)=O)c(Cl)c2C)cnn1CC [compound 71] | 70 | 40 | 60 | 70 | 60 | 60 | 60 | 10 | 0 | 60 | – | – | – | – | – | – | – | – | – | – | –
3 | C=C(C)CSC(=O)Oc1c(C(=O)c2ccc(S(C)(=O)=O)c(C(=O)OC)c2C)cnn1CC [compound 101] | 100 | 100 | 100 | 100 | 70 | 98 | 98 | 10 | 30 | 90 | – | – | – | – | – | – | – | – | – | – | –
4 | CCSC(=O)Oc1c(C(=O)c2ccc(S(C)(=O)=O)c(CCCOC)c2C)cnn1C [compound 226] | 100 | 95 | 95 | 95 | 70 | 80 | 100 | 0 | 0 | 100 | – | – | – | – | – | – | – | – | – | – | –
5 | CCSC(=O)Oc1c(C(=O)c2ccc(S(C)(=O)=O)c(OCC3OCCO3)c2Cl)cnn1CC [compound 227] | – | – | – | – | – | – | – | – | – | – | 100 | 100 | 100 | 100 | 60 | 100 | 30 | 0 | 0 | 95 | –
6 | CCSC(=O)Oc1c(C(=O)c2ccc(S(C)(=O)=O)c(CN(CC#N)C(=O)SCC)c2C)cnn1C [compound 228] | – | – | – | – | – | – | – | – | – | – | 98 | 60 | 40 | 40 | 40 | 70 | 0 | 0 | 0 | 80 | –

From patent publication US8030498B2, “Benzoylpyrazole compounds and herbicides containing them” (Ishihara Sangyo Kaisha, Ltd., priority 2005, dated 2011)
